Results as given in US3947411A, “Novel 1-aryl-2-arylalkyl-3-or-4-[4'-(substituted-alkyl)piperazino-1']butanols- 2-or-butenes-1, and methods of manufacture thereof” (Warner-Lambert Company, priority 1972, dated 1976).
Values after ≈ are worked out from the molar mass of the structure shown.

Tests used:
E. coli [1] = experiment: Minimum inhibitory concentration for bacteria in presence of serum, E. coli (Table VII); format: cell-based; conditions: Escherichia coli; nutrient broth + 10% serum, 37°C, 48 hours
Escherichia coli = experiment: Agar well inhibition zone test against bacteria, Escherichia coli (Table III); conditions: quantity per well giving inhibition zone (500, 50, 5 μg tested); nutrient agar, 37°, 24 hours
Procedure: The efficacy of the compounds against bacteria was tested as follows:
The test organisms, in this case Staphylococcus aureus and Escherichia coli, were inoculated on nutrient agar as described in Example 12, wells were punched, and the solutions of the compounds were transferred to fill the wells. The quantity of compound in the wells amounted again to 500 μg, 50 μg and 5 μg.
After incubation a 37° for 24 hours the quantity of compound was determined at which an inhibition of the organism's growth, in the form of an inhibition zone around the corresponding well, occurred.

A. niger [2] = experiment: Minimum inhibitory concentration for fungi in presence of serum, A. niger (Table VI); format: cell-based; conditions: Aspergillus niger; Sabouraud nutrient broth + 10% bovine serum, 28°C, 48 hours
Staphylococcus aureus = experiment: Agar well inhibition zone test against bacteria, Staphylococcus aureus (Table III); conditions: quantity per well giving inhibition zone (500, 50, 5 μg tested); nutrient agar, 37°, 24 hours
Aspergillus niger = experiment: Agar well inhibition zone test against fungi, Aspergillus niger (Table II); conditions: quantity per well giving inhibition zone (500, 50, 5 μg tested); Sabouraud agar, 28°, 48 hours
C. albicans [3] = experiment: Minimum inhibitory concentration for fungi, tube dilution, C. albicans (Table IV); conditions: Candida albicans, 48 h, read-out: Minimum Inhibitory Concentration, C. albicans
Procedure: (§1) A tube dilution series of the respective compound in Sabouraud nutrient broth, whose individual tubes contained concentrations of 1024 μg, 512 μg, 256 μg, 128 μg, 64 μg, 32 μg, 16 μg, 8 μg, 4 μg, 2 μg, 1.1 μg and 0.5 μg/ml, was prepared and inoculated with a photometrically standardized suspension of the test organisms or the spores thereof.

Solubility in water = format: physicochemical; conditions: hydrochlorides or oxalates, read-out: solubilities (in water)
Method in brief: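 Water solubility given for the hydrochloride salts of most compounds and for the oxalate salts of a few.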

A. niger [4] = experiment: Minimum inhibitory concentration for fungi, tube dilution, A. niger (Table IV); conditions: Aspergillus niger, 48 h, read-out: Minimum Inhibitory Concentration, A. niger
Procedure: as §1

Candida albicans = experiment: Agar well inhibition zone test against fungi, Candida albicans (Table II); conditions: quantity per well giving inhibition zone (500, 50, 5 μg tested); Sabouraud agar, 28°, 48 hours
E. coli [5] = experiment: Minimum inhibitory concentration for bacteria, tube dilution, E. coli (Table V); format: cell-based; conditions: Escherichia coli, 48 h, read-out: Minimum Inhibitory Concentration, E. coli
C. albicans [6] = experiment: Minimum inhibitory concentration for fungi in presence of serum, C. albicans (Table VI); format: cell-based; conditions: Candida albicans; Sabouraud nutrient broth + 10% bovine serum, 28°C, 48 hours
[7] = tested on: Mycobacterium tuberculosis II 37 RV (typus humanus); experiment: Efficacy against Mycobacteria, Tb-broth dilution series (Table I); format: cell-based; conditions: 504 h, Dubos Tb-broth + 10% bovine serum, 21 days, read-out: Minimum Inhibitory Concentration
Staph. aureus = experiment: Minimum inhibitory concentration for bacteria, tube dilution, Staph. aureus (Table V); conditions: Staphylococcus aureus, 48 h, read-out: Minimum Inhibitory Concentration, Staph. aureus
Procedure: A tube dilution series of the respective compound in nutrient broth whose individual tubes contained concentrations of 1024 μg, 512 μg, 256 μg, 128 μg, 64 μg, 32 μg, 1 μg, 8 μg, 4 μg, 2 μg, 1.1 μg and 0.5 μg/ml was prepared and inoculated with a photometrically standardized suspension of the test organisms.

CNCCN1CCN(C(C)C(=Cc2ccccc2)Cc2ccccc2)CC1 (stereo not drawn) [XXV, 1-phenyl-2-benzyl-3-[4'-(β-methylamino-ethyl)-piperazino-1']-butene-1]
MIC (E. coli [1]): 512 µg/mL
Inhibition Area at μg, E. coli (Escherichia coli): 50 µg
MIC (A. niger [2]): 64 µg/mL
Inhibition Area at μg, Staph. aureus (Staphylococcus aureus): 5 µg
Inhibition Area at μg, Asp. niger (Aspergillus niger): 5 µg
MIC (C. albicans [3]): 64 µg/mL (≈ 176 µM)
solubility (Solubility in water): 100 mg/mL (≈ 275000 µM)
MIC (A. niger [4]): 8 µg/mL (≈ 22 µM)
Inhibition Area at μg, Cand. albicans (Candida albicans): 5 µg
MIC (E. coli [5]): 64 µg/mL (≈ 176 µM)
MIC (C. albicans [6]): 256 µg/mL
MIC [7]: 10 µg/mL
MIC (Staph. aureus): 64 µg/mL (≈ 176 µM)
